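Cells were grown in 96-well plates and exposed to each compound for 48 hours at five concentrations; endpoints were interpolated linearly between bracketing concentrations, or set to the highest concentration if not reached. At the TGI there is no net growth.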
test system: A498 renal; experiment: NCI-60 cell line screen, 48 h

Row | SMILES | TGI
1 | C/C(=C/CC[C@]1(CO)CC[C@]2(CO)[C@H](CC[C@@H]3[C@@]4(C)CC[C@H](OC5OCC(O)C(O)C5OC5OC(CO)C(O)C(O)C5O)C(C)(C)[C@@H]4CC[C@]32C)[C@H]1O)CO (some centres not stated) | > 100 µM
2 | C=CCOC(=O)C1C2OC3(C(C(=O)OC)=C2C(=O)OC)c2ccccc2CCC13 (configuration not stated) | > 10 µM
3 | Cc1ccc(/C(O)=C/C(=O)C(=O)NN=C(c2ccccc2)c2ccccc2)cc1 | > 100 µM
4 | CC[C@@H](/C=C\CCC(=O)C[C@H](O)CCC=C(C)C)O[Si](C(C)C)(C(C)C)C(C)C | > 100 µM
5 | Cc1ccc2nc(NC(=O)/C(Cc3nc4ccc(Cl)cc4[nH]c3=O)=N\NC(C)(C)C)sc2c1 | > 100 µM
6 | Cc1cc(O)c(C(C)C)cc1C1(c2cc(C(C)C)c(O)cc2C)OC(=O)c2ccccc21 | 7.1 µM
7 | CCOC(=O)c1ccc(C(=O)C(C(C)=O)C(=O)OC(C)(C)C)[nH]1 (configuration not stated) | > 100 µM
8 | O=c1onc2c3ccccc3ncn12 | > 100 µM
9 | CC(C)[C@@H]1ON1C(C)c1ccccc1 (some centres not stated) | > 100 µM
10 | O=C(Nc1cccc(F)c1)c1cc2ccc(O)cc2oc1=Nc1ccccc1F | 35.6 µM
11 | COc1ccc(C(=O)c2[nH]c(Nc3ccc(Cl)cc3)c(C(=S)Nc3ccccc3)c2N)cc1 | > 100 µM
12 | CC(C)(CC(O)C#N)/[N+]([O-])=[N+](\[O-])C(C)(C)CC(O)C#N (configuration not stated) | > 100 µM
13 | COc1ccc(-n2cnc3c(NC(CCSC)C(=O)O)ncnc32)cc1 (configuration not stated) | > 100 µM
14 | COC(=O)C1=C(C)N2[C@H](C(=O)O)CO[C@@]2(C)[C@H](C(=O)OC)[C@H]1c1cccc([N+](=O)[O-])c1 | > 100 µM
15 | Cc1ccc(/C=C2\CCCC(CN3CCCCC3)C2=O)cc1 (configuration not stated) | 26.1 µM
16 | CCOc1cc(NC(C)=O)ccc1C(=O)NN1C(=O)C(Cl)C1c1ccco1 (configuration not stated) | 30.8 µM
17 | OC(c1ccc(-c2ccccc2)cc1)C(F)(F)c1nc2ccccc2o1 (configuration not stated) | > 41.2 µM
18 | COC(=O)c1cnn2c1n[n+]([O-])c1ccccc12 | > 100 µM
19 | Nc1ccc(CCN2CCN(CCCc3ccccc3)CC2)cc1 | > 100 µM
20 | C[C@H]1C=C2[C@@H]3CC(C)(C(=O)O)CC[C@]3(C)CC[C@]2(C)[C@]2(C)CC[C@H]3C(C)(C)[C@@H](OC(=O)c4cccc5c(=O)c6ccccc6[nH]c45)CC[C@]3(C)[C@@H]12 (some centres not stated) | > 100 µM
21 | COC(=O)c1c(OC(C)=O)ccc2c1c1c(OC(C)=O)c3ccccc3c(OC(C)=O)c1n2Cc1ccccc1 | 43.8 µM
22 | COc1ccc2oc(=N)c(C(=O)Nc3ccccn3)cc2c1 | > 100 µM
23 | N#C/C(=C\c1c[nH]c2ccccc12)C(=O)c1ccc(O)c(O)c1 | > 100 µM
24 | CN(C)CCCN1c2ccccc2CCc2ccc([N+](=O)[O-])cc21 | 40.3 µM
25 | CC(C)(C)OC(=O)NCCC1CN(C(=O)c2ccccc2)c2ccccc21 (configuration not stated) | > 100 µM
26 | COC(=O)C1=C(OC(=O)c2ccccc2)C(C(=O)OC)[C@]2(O)[C@@H](C(=O)OC)[C@H]1C[C@@H](c1ccccc1)[C@@H]2C(=O)OC (some centres not stated) | 64.1 µM
27 | O=C(/C=C/c1csc(-c2ccccc2)n1)NCc1ccc(C(=O)NCc2ccccc2)cc1 | > 100 µM

test system: BT-549 breast; experiment: NCI-60 cell line screen, 48 h

Row | SMILES | TGI
28 | C/C(=C/CC[C@]1(CO)CC[C@]2(CO)[C@H](CC[C@@H]3[C@@]4(C)CC[C@H](OC5OCC(O)C(O)C5OC5OC(CO)C(O)C(O)C5O)C(C)(C)[C@@H]4CC[C@]32C)[C@H]1O)CO (some centres not stated) | > 100 µM
29 | C=CCOC(=O)C1C2OC3(C(C(=O)OC)=C2C(=O)OC)c2ccccc2CCC13 (configuration not stated) | > 10 µM
30 | Cc1ccc(/C(O)=C/C(=O)C(=O)NN=C(c2ccccc2)c2ccccc2)cc1 | > 100 µM
31 | CC[C@@H](/C=C\CCC(=O)C[C@H](O)CCC=C(C)C)O[Si](C(C)C)(C(C)C)C(C)C | > 100 µM
32 | Cc1ccc2nc(NC(=O)/C(Cc3nc4ccc(Cl)cc4[nH]c3=O)=N\NC(C)(C)C)sc2c1 | > 100 µM
33 | Cc1cc(O)c(C(C)C)cc1C1(c2cc(C(C)C)c(O)cc2C)OC(=O)c2ccccc21 | 5.53 µM
34 | CCOC(=O)c1ccc(C(=O)C(C(C)=O)C(=O)OC(C)(C)C)[nH]1 (configuration not stated) | > 100 µM
35 | O=c1onc2c3ccccc3ncn12 | > 100 µM
36 | CC(C)[C@@H]1ON1C(C)c1ccccc1 (some centres not stated) | > 100 µM
37 | O=C(Nc1cccc(F)c1)c1cc2ccc(O)cc2oc1=Nc1ccccc1F | 8.61 µM
38 | COc1ccc(C(=O)c2[nH]c(Nc3ccc(Cl)cc3)c(C(=S)Nc3ccccc3)c2N)cc1 | > 100 µM
39 | CC(C)(CC(O)C#N)/[N+]([O-])=[N+](\[O-])C(C)(C)CC(O)C#N (configuration not stated) | 78.8 µM
40 | COc1ccc(-n2cnc3c(NC(CCSC)C(=O)O)ncnc32)cc1 (configuration not stated) | > 100 µM
41 | COC(=O)C1=C(C)N2[C@H](C(=O)O)CO[C@@]2(C)[C@H](C(=O)OC)[C@H]1c1cccc([N+](=O)[O-])c1 | > 100 µM
42 | Cc1ccc(/C=C2\CCCC(CN3CCCCC3)C2=O)cc1 (configuration not stated) | 4.84 µM
43 | CCOc1cc(NC(C)=O)ccc1C(=O)NN1C(=O)C(Cl)C1c1ccco1 (configuration not stated) | 30.4 µM
44 | OC(c1ccc(-c2ccccc2)cc1)C(F)(F)c1nc2ccccc2o1 (configuration not stated) | > 100 µM
45 | COC(=O)c1cnn2c1n[n+]([O-])c1ccccc12 | > 100 µM
46 | Nc1ccc(CCN2CCN(CCCc3ccccc3)CC2)cc1 | > 100 µM
47 | C[C@H]1C=C2[C@@H]3CC(C)(C(=O)O)CC[C@]3(C)CC[C@]2(C)[C@]2(C)CC[C@H]3C(C)(C)[C@@H](OC(=O)c4cccc5c(=O)c6ccccc6[nH]c45)CC[C@]3(C)[C@@H]12 (some centres not stated) | > 100 µM
48 | COC(=O)c1c(OC(C)=O)ccc2c1c1c(OC(C)=O)c3ccccc3c(OC(C)=O)c1n2Cc1ccccc1 | 28.8 µM
49 | COc1ccc2oc(=N)c(C(=O)Nc3ccccn3)cc2c1 | > 100 µM
50 | N#C/C(=C\c1c[nH]c2ccccc12)C(=O)c1ccc(O)c(O)c1 | 65.1 µM
51 | CN(C)CCCN1c2ccccc2CCc2ccc([N+](=O)[O-])cc21 | 73.7 µM
52 | CC(C)(C)OC(=O)NCCC1CN(C(=O)c2ccccc2)c2ccccc21 (configuration not stated) | 66.5 µM
53 | COC(=O)C1=C(OC(=O)c2ccccc2)C(C(=O)OC)[C@]2(O)[C@@H](C(=O)OC)[C@H]1C[C@@H](c1ccccc1)[C@@H]2C(=O)OC (some centres not stated) | 75.6 µM
54 | O=C(/C=C/c1csc(-c2ccccc2)n1)NCc1ccc(C(=O)NCc2ccccc2)cc1 | > 100 µM

test system: HCT-116 colon; experiment: NCI-60 cell line screen, 48 h

Row | SMILES | TGI
55 | C/C(=C/CC[C@]1(CO)CC[C@]2(CO)[C@H](CC[C@@H]3[C@@]4(C)CC[C@H](OC5OCC(O)C(O)C5OC5OC(CO)C(O)C(O)C5O)C(C)(C)[C@@H]4CC[C@]32C)[C@H]1O)CO (some centres not stated) | > 100 µM
56 | C=CCOC(=O)C1C2OC3(C(C(=O)OC)=C2C(=O)OC)c2ccccc2CCC13 (configuration not stated) | > 10 µM
57 | Cc1ccc(/C(O)=C/C(=O)C(=O)NN=C(c2ccccc2)c2ccccc2)cc1 | > 100 µM
58 | CC[C@@H](/C=C\CCC(=O)C[C@H](O)CCC=C(C)C)O[Si](C(C)C)(C(C)C)C(C)C | > 100 µM
59 | Cc1ccc2nc(NC(=O)/C(Cc3nc4ccc(Cl)cc4[nH]c3=O)=N\NC(C)(C)C)sc2c1 | > 100 µM
60 | Cc1cc(O)c(C(C)C)cc1C1(c2cc(C(C)C)c(O)cc2C)OC(=O)c2ccccc21 | 3.09 µM
61 | CCOC(=O)c1ccc(C(=O)C(C(C)=O)C(=O)OC(C)(C)C)[nH]1 (configuration not stated) | > 100 µM
62 | O=c1onc2c3ccccc3ncn12 | > 100 µM
63 | CC(C)[C@@H]1ON1C(C)c1ccccc1 (some centres not stated) | > 100 µM
64 | O=C(Nc1cccc(F)c1)c1cc2ccc(O)cc2oc1=Nc1ccccc1F | 12.9 µM
65 | COc1ccc(C(=O)c2[nH]c(Nc3ccc(Cl)cc3)c(C(=S)Nc3ccccc3)c2N)cc1 | > 100 µM
66 | CC(C)(CC(O)C#N)/[N+]([O-])=[N+](\[O-])C(C)(C)CC(O)C#N (configuration not stated) | 32.7 µM
67 | COc1ccc(-n2cnc3c(NC(CCSC)C(=O)O)ncnc32)cc1 (configuration not stated) | > 100 µM

Reference: PubChem BioAssay (NCI)
